Holding throughout (assay type): cell-based
For assay [1], the target named is T1, human TLR7 (Homo sapiens, UniProt Q9NYK1).
T1 construct: host or cells: HEK-Blue cells (HEK293-derived reporter line)
T1 sequence (Q9NYK1 27-1049): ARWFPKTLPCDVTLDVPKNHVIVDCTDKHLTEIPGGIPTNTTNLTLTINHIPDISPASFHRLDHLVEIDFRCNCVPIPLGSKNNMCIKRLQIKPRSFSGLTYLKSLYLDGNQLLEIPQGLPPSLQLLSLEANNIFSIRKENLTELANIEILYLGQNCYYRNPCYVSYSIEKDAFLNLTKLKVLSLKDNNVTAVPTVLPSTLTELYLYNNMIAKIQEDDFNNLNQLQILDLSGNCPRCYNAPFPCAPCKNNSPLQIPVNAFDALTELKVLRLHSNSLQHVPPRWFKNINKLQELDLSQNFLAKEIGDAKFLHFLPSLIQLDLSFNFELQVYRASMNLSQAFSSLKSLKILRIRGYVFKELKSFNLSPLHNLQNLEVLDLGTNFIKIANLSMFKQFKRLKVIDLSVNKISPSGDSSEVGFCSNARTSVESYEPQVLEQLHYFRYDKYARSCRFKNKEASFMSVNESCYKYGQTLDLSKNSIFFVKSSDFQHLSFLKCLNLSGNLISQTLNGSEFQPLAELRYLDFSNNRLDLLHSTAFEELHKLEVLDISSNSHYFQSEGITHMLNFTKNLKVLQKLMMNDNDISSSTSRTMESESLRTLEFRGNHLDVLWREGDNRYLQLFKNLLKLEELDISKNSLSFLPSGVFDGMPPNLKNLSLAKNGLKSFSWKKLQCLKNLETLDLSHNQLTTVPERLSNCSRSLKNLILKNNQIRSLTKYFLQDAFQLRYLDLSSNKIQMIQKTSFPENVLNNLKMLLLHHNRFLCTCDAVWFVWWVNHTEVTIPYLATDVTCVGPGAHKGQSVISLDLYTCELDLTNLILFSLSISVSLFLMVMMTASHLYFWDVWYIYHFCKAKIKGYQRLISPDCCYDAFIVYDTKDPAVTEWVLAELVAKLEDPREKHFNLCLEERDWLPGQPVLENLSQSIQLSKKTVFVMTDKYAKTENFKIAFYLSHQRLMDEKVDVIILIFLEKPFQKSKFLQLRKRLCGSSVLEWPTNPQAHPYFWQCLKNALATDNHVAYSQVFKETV
The assay is described as follows: TLR7/8/9 Inhibition Reporter Assays (TLR7). The note with it: HEK-Blue cells overexpressing human TLR7, SEAP reporter, stimulated with TLR7 ligand gardiquimod. The essentials: (§1)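 HEK-Blue cells overexpressing human TLR7, TLR8 or TLR9 with NF-κB/AP-1-driven SEAP reporter, pre-treated 60 min with compound ([…]). Stimulated with […] (TLR7), […] (TLR8) or ODN2006 200 nM (TLR9), then 22 h at 37° C; SEAP measured, % inhibition relative to agonist-plus-DMSO and known-inhibitor wells.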

For assay [2], the target named is T2, human TLR8 (Homo sapiens, UniProt Q9NR97).
T2 construct: host or cells: HEK-Blue cells (HEK293-derived reporter line)
T2 sequence (Q9NR97 27-1041): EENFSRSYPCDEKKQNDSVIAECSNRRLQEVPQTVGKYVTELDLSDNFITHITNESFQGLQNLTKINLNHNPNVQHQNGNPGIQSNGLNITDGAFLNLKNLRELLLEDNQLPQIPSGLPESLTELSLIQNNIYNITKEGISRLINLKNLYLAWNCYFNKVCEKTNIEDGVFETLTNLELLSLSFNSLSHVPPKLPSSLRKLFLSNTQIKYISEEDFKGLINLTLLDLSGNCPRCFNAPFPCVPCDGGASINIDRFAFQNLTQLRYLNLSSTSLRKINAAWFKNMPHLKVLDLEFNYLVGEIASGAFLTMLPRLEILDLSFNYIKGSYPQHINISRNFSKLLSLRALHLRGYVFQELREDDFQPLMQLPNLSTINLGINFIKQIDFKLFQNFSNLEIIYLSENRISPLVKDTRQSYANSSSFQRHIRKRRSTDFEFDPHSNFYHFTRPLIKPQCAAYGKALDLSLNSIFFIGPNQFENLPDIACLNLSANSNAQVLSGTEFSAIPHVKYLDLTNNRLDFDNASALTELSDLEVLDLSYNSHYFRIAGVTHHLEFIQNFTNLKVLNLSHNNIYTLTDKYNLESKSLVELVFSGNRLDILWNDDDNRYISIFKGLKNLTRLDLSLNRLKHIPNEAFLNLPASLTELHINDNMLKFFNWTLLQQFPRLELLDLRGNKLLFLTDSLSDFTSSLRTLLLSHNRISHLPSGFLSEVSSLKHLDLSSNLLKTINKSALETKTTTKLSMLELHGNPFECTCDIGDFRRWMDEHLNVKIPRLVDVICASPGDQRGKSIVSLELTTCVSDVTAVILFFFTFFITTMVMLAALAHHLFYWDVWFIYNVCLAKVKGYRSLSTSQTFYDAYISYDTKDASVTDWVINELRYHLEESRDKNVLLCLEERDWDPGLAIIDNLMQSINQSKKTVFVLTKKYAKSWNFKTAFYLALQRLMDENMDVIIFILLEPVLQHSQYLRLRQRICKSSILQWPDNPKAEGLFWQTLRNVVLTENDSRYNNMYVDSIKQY
The assay is described as follows: TLR7/8/9 Inhibition Reporter Assays (TLR8). The note with it: HEK-Blue cells overexpressing human TLR8, SEAP reporter, stimulated with TLR8 ligand R848. An outline of the steps:
as §1
For orientation: A reporter such as luciferase makes a cellular process visible.

In assay [3] the target is T3, human TLR9 (Homo sapiens, UniProt Q9NR96).
T3 construct: host or cells: HEK-Blue cells (HEK293-derived reporter line)
T3 sequence (Q9NR96 26-1032): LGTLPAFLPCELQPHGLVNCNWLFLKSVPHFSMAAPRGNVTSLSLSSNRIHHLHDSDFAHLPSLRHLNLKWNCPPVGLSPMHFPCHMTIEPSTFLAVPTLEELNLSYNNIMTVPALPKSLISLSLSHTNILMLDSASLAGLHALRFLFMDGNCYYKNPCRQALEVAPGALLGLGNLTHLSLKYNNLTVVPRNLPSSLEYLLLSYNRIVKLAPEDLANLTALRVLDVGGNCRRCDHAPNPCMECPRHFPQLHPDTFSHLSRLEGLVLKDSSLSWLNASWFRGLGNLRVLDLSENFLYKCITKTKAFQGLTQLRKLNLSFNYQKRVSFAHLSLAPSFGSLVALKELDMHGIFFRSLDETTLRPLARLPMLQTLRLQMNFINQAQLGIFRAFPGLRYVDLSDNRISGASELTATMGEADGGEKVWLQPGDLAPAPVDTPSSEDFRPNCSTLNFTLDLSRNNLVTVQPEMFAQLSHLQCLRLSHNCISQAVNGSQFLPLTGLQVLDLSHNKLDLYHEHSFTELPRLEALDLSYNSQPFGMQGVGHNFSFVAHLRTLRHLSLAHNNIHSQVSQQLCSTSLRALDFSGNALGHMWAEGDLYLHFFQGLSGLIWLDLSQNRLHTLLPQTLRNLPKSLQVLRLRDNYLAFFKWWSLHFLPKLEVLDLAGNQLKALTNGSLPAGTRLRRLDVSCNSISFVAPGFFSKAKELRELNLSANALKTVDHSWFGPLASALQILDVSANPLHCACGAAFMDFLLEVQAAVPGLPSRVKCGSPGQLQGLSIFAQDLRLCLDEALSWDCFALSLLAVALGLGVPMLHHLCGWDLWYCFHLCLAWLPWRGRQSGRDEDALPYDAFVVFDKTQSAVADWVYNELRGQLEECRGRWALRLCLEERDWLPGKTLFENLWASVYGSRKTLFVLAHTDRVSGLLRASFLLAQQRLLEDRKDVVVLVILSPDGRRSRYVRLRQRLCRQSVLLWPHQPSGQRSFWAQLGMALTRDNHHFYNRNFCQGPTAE
Description: TLR7/8/9 Inhibition Reporter Assays (TLR9). The note with it: HEK-Blue cells overexpressing human TLR9, SEAP reporter, stimulated with TLR9 ligand ODN2006. The essentials: as §1

What is called IC50 is the concentration needed to halve the response being measured. Read a high IC50 as weaker potency in that assay. As to `COCCN1CC2(CCN(c3ccc(-c4cc5c(nc(-c6ccc(OC)c(OC)c6)n5C)c(C)n4)cc3)CC2)C1` [Example 103, 2-(3,4-dimethoxyphenyl)-6-(4-(2-(2-methoxyethyl)-2,7-diazaspiro[3.5]nonan-7-yl)phenyl)-1,4-dimethyl-1H-imidazo[4,5-c]pyridine], the IC50 in assay [1] is 1700 nM; in assay [2], greater than 50000 nM; in assay [3], 140 nM.
Taken in the same sequence, the figures for `Cc1nc(-c2ccc(N3CCC4(CC3)CN(CC(C)C)C4)cc2)cc2c1nc(-c1ccc(S(C)(=O)=O)cc1)n2C` [Example 73, 6-(4-(2-isobutyl-2,7-diazaspiro[3.5]nonan-7-yl)phenyl)-1,4-dimethyl-2-(4-(methylsulfonyl)phenyl)-1H-imidazo[4,5-c]pyridine] were 890 nM, 3900 nM and 110 nM.
Consider `COc1ccc(-c2nc3c(C)nc(-c4ccc(N5C[C@@H]6CN(C7CCC7)C[C@@H]6C5)cc4)cc3n2C)cc1OC` [Example 66, 6-(4-((3aR,6aS)-5-cyclobutylhexahydropyrrolo[3,4-c]pyrrol-2(1H)-yl)phenyl)-2-(3,4-dimethoxyphenyl)-1,4-dimethyl-1H-imidazo[4,5-c]pyridine], for which the IC50 in assay [1] amounted to 2300 nM; in assay [2], 20000 nM; in assay [3], 29 nM.
In the case of `Cc1nc(-c2ccc(N3CC4(CCN(CC(C)(C)O)CC4)C3)cc2)cc2c1nc(-c1ccc(S(C)(=O)=O)cc1)n2C` [Example 100, 1-(2-(4-(1,4-dimethyl-2-(4-(methylsulfonyl)phenyl)-1H-imidazo[4,5-c]pyridin-6-yl)phenyl)-2,7-diazaspiro[3.5]nonan-7-yl)-2-methylpropan-2-ol], the figures for the IC50 in assay [1], in assay [2] and in assay [3] were 3300 nM, 2200 nM and 650 nM, respectively.
Consider `Cc1nc(C2CCN(C3CCN(CC(C)(C)O)CC3)CC2)cc2c1nc(-c1ccc(S(C)(=O)=O)cc1)n2C` [Example 40, 1-(4-(1,4-dimethyl-2-(4-(methylsulfonyl)phenyl)-1H-imidazo[4,5-c]pyridin-6-yl)-[1,4′-bipiperidin]-1′-yl)-2-methylpropan-2-ol], for which the figures for the half-maximal inhibitory concentration (IC50) in assay [1], in assay [2] and in assay [3] were 9100 nM, greater than 50000 nM and 120 nM, respectively.
Taken in the same sequence, the figures for `CC(C)CN1CC2(CCN(c3ccc(-c4cc5c(cn4)nc(-c4ccc(S(C)(=O)=O)cc4)n5C)cc3)C2)C1` [Example 99, 6-(4-(2-isobutyl-2,6-diazaspiro[3.4]octan-6-yl)phenyl)-1-methyl-2-(4-(methylsulfonyl)phenyl)-1H-imidazo[4,5-c]pyridine] were 3100 nM, 900 nM and 220 nM.
Regarding `Cc1nc(-c2ccc(N3CCC4(CC3)CN(C3CCC3)C4)cc2)cc2c1nc(-c1ccc(S(C)(=O)=O)cc1)n2C` [Example 74, 6-(4-(2-cyclobutyl-2,7-diazaspiro[3.5]nonan-7-yl)phenyl)-1,4-dimethyl-2-(4-(methylsulfonyl)phenyl)-1H-imidazo[4,5-c]pyridine], the values for the IC50 in assay [1], in assay [2] and in assay [3] were 1100 nM, 3700 nM and 38 nM, respectively.
For the molecule `CS(=O)(=O)c1ccc(-c2nc3cnc(-c4ccc(N5CCN(CCN6CCOCC6)CC5)cc4)cc3n2C2CC2)cc1` [Example 56, 4-(2-(4-(4-(1-cyclopropyl-2-(4-(methylsulfonyl)phenyl)-1H-imidazo[4,5-c]pyridin-6-yl)phenyl)piperazin-1-yl)ethyl)morpholine], the IC50 in assay [1] was greater than 50000 nM; in assay [2], 46000 nM; in assay [3], 880 nM.
Take `COc1ccc(-c2nc3c(C)nc(-c4ccc(N5CCC6(CC5)CN(CC(C)C)C6)cc4)cc3n2C)cc1OC` [Example 75, 2-(3,4-dimethoxyphenyl)-6-(4-(2-isobutyl-2,7-diazaspiro[3.5]nonan-7-yl)phenyl)-1,4-dimethyl-1H-imidazo[4,5-c]pyridine]: the IC50 in assay [1] was determined as 890 nM; in assay [2] it was 28000 nM; in assay [3], 97 nM.
Take `COc1ccc(-c2nc3c(C)nc(-c4ccc(N5CCC6(CC5)CN(C5COC5)C6)cc4)cc3n2C)cc1OC` [Example 106, 2-(3,4-dimethoxyphenyl)-1,4-dimethyl-6-(4-(2-(oxetan-3-yl)-2,7-diazaspiro[3.5]nonan-7-yl)phenyl)-1H-imidazo[4,5-c]pyridine]: the IC50 in assay [1] is 4000 nM; in assay [2], greater than 50000 nM; in assay [3], 230 nM.
Take `Cc1nc(C2CCN(C3CCN(C(C)C)CC3)CC2)cc2c1nc(-c1ccc(S(C)(=O)=O)cc1)n2C` [Example 38, 6-(1′-isopropyl-[1,4′-bipiperidin]-4-yl)-1,4-dimethyl-2-(4-(methylsulfonyl)phenyl)-1H-imidazo[4,5-c]pyridine]: the IC50 in assay [1] was 7700 nM; in assay [2], greater than 50000 nM; in assay [3], 130 nM.

The values above are taken from patent US20250163054A1, “SUBSTITUTED BICYCLIC HETEROARYL COMPOUNDS USEFUL AS INHIBITORS OF TLR9” (Bristol-Myers Squibb Company, priority 2022, published 2025).
